Measured values as given in US20080027042A1, “Novel Aminopyridine Derivatives Having Aurora a Selective Inhibitory Action” (priority 2004, published 2008).
Counter-ions that a name gives are not always drawn.

Legend:
[1] = target: T1, Aurora A (Homo sapiens, UniProt O14965); assay: Aurora A inhibitory action (33P-ATP kinase assay, Kemptide substrate); format: biochemical; details: 20 μM ATP, 30° C., 20 minutes
T1 construct: histidine tag (N); made in house; host or cells: Escherichia coli BL21-CodonPlus(DE3)-RIL
T1 sequence (O14965 1-403): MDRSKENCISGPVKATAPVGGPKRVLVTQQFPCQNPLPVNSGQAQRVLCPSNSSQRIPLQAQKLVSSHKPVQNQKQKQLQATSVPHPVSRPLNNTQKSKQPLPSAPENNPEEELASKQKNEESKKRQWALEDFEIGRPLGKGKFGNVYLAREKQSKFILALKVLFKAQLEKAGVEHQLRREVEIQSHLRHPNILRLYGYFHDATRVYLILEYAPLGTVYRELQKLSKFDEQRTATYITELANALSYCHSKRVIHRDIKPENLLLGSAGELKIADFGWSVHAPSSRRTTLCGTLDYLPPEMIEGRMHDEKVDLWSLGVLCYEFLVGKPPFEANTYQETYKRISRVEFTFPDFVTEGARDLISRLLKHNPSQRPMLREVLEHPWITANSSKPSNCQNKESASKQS
Description: Aurora A Inhibitory Action
(1) Purification of Aurora A
(§1) cDNA of Aurora A having histidine tag fused at the amino terminal was integrated into an expression vector, which was then highly expressed in Escherichia coli BL2 1-CodonPlus(DE3)-RIL cells. The Escherichia coli cells were recovered and solubilized, and then the histidine-tagged Aurora A protein was adsorbed onto a nickel chelate column and eluted from the column with imidazole. The active fraction was desalted with a desalting column to give a pure enzyme.
(2) Measurement of Activity of Aurora A
For measurement of the activity of Aurora A, the substrate used was Kemptide (Lys-Arg-Arg-Ala-Ser-Lys-Gly) (SEQ.ID.NO.: 1), a synthetic peptide purchased from Sigma-Aldrich, Inc. [Certificate of analysis (Upstate, Inc.)].
Reaction was conducted by a partial modification of a method by Upstate, Inc. [Kinase Profiler™ Assay Protocols]. The amount of the reaction liquid was 21.1 μL, and the composition of the reaction buffer (R2 buffer) was 50 mM Tris-hydrochloride buffer (pH 7.4)/15 mM magnesium acetate/0.2 mM ethylenediamine-N,N,N′,N′-tetraacetate (EDTA). To this, purified Aurora A, 100 μM of a substrate peptide, 20 μM of unlabeled adenosine triphosphate (ATP) and 0.5 μCi of [γ-^33P] labeled ATP (2,500 Ci/mmole or more) were added, and the mixture was reacted at 30° C. for 20 minutes. Then, 10 μL of 350 mM phosphate buffer was added to the reaction system to stop the reaction. The substrate peptide was adsorbed on a P81 paper filter 96-well plate and then washed with 130 mM phosphate buffer for several times. The radiation activity of the peptide was measured with a liquid scintillation counter. The [γ-^33P] labeled ATP was purchased from Amersham Biosciences Co., Ltd.
(§2) The compound to be tested was added to the reaction system such that a dilution series of the compound in dimethylsulfoxide was first prepared, and 1.1 μL of this solution was added. A control was provided by adding 1.1 μL of DMSO to the reaction system.

[2] = target: T2, Aurora B (Homo sapiens, UniProt Q96GD4); assay: Aurora B inhibitory action (33P-ATP kinase assay, Kemptide substrate); format: biochemical; details: 100 μM ATP, 30° C., 20 minutes
T2 construct: histidine tag (N); made in house; host or cells: Escherichia coli BL21-CodonPlus(DE3)-RIL
T2 sequence (Q96GD4 whole entry): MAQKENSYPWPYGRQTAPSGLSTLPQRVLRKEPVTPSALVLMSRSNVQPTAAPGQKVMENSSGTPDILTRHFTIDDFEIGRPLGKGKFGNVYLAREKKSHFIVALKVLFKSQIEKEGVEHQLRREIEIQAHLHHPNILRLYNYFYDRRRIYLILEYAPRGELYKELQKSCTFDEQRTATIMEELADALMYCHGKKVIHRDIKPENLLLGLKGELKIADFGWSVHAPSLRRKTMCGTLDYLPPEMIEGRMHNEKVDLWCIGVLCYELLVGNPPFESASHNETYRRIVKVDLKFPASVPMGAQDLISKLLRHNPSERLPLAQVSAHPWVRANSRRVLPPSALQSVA
Description: Aurora B Inhibitory Action
(1) Purification of Aurora B
as §1, with “of Aurora B having histidine” for “of Aurora A having histidine”, “Escherichia coli BL21-CodonPlus(DE3)-RIL cells. The” for “Escherichia coli BL2 1-CodonPlus(DE3)-RIL cells. The”
(2) Measurement of Activity of Aurora B
For measurement of the activity of Aurora B, the substrate used was Kemptide (Lys-Arg-Arg-Ala-Ser-Lys-Gly) (SEQ.ED.NO.: 1), a synthetic peptide purchased from Sigma-Aldrich, Inc. [Certificate of analysis (Upstate, Inc.)].
Reaction was conducted by a partial modification of the method of activity measurement for Aurora A. The amount of the reaction liquid was 21.1 μL, and the composition of the reaction buffer (R2 buffer) was 50 mM Tris-hydrochloride buffer (pH 7.4)/15 mM magnesium acetate/0.2 mM ethylenediamine-N,N,N′,N′-tetraacetate (EDTA). To this, purified Aurora B, 100 μM of a substrate peptide, 100 μM of unlabeled adenosine triphosphate (ATP) and 1 μCi of [γ-^33P] labeled ATP (2,500 Ci/mmole or more) were added, and the mixture was reacted at 30° C. for 20 minutes. Then, 10 μL of 350 mM phosphate buffer was added to the reaction system to stop the reaction. The substrate peptide was adsorbed on a P81 paper filter 96-well plate and then washed with 130 mM phosphate buffer for several times. The radiation activity of the peptide was measured with a liquid scintillation counter. The [γ-^33P] labeled ATP was purchased from Amersham Biosciences Co., Ltd.
as §2

| SMILES | IC50 [1] [nM] | IC50 [2] [nM] |
| --- | --- | --- |
| N#Cc1cnc(Nc2cccc(CN3CCN(C(=O)c4cccc(Cl)c4F)CC3)n2)s1 [Example 43] | 1.1 | 460 |
| O=C(c1cccc(Cl)c1Cl)N1CCN(Cc2cncc(Nc3cc[nH]n3)n2)CC1 [Example 45, 6-((4-(2,3-dichlorobenzoyl)piperazin-1-yl)methyl)-N-1H-pyrazol-3-ylpyrazin-2-amine] | 2.5 | 4800 |
| O=C(c1cccc(C(F)(F)F)c1F)N1C[C@@H]2C[C@H]1CN2Cc1cncc(Nc2cc[nH]n2)n1 [Example 47, 6-(((lS,4S)-5-(2-fluoro-3-(trifluoromethyl)benzoyl)-2,5-diazabicyclo[2.2.1]hept-2-yl)methyl)-N-1H-pyrazol-3-ylpyrazin-2-amine] | 5.5 | 2200 |
| O=C(c1cccc(C(F)(F)F)c1F)N1C[C@H]2C[C@@H]1CN2Cc1cncc(Nc2cc[nH]n2)n1 [Example 48, 6-(((1R,4R)-5-(2-fluoro-3-(trifluoromethyl)benzoyl)-2,5-diazabicyclo[2.2.1]hept-2-yl)methyl)-N-1H-pyrazol-3-ylpyrazin-2-amine] | 2.8 | 2900 |
| O=C(c1cccc(Br)c1F)N1CCN(Cc2cncc(Nc3cc[nH]n3)n2)CC1 [Example 49, 6-((4-(3-bromo-2-fluorobenzoyl)piperazin-1-yl)methyl)-N-1H-pyrazol-3-ylpyrazin-2-amine trifluoroacetate] | 1.4 | 4400 |
| O=C(c1cccc(C(F)(F)F)c1Cl)N1CCN(Cc2cncc(Nc3cc[nH]n3)n2)CC1 [Example 51, 6-((4-(2-chloro-3-(trifluoromethyl)benzoyl)piperazin-1-yl)methyl)-N-1H-pyrazol-3-ylpyrazin-2-amine trifluoroacetate] | 0.98 | 930 |
| O=C(c1cccc(C(F)(F)F)c1F)N1CCN(Cc2cncc(Nc3cc[nH]n3)n2)CC(O)C1 (stereo not shown) [Example 55, 6-((4-(2-fluoro-3-(trifluoromethyl)benzoyl)-6-hydroxy-1,4-diazepan-1-yl)methyl)-N-1H-pyrazol-3-ylpyrazin-2-arnine] | 20 | 7400 |
| O=C(c1cccc(C(F)(F)F)c1F)N1CCN(Cc2cncc(Nc3ncns3)n2)CC1 [Example 57, 6-((4-(2-fluoro-(3-trifluoromethyl)benzoyl)piperazin-1-yl)methyl)-N-1,2,4-thiadiazol-5-ylpyrazin-2-amine] | 15 | 28000 |
| O=C(c1ccoc1)N1CCN(Cc2cccc(Nc3ncc(Cl)s3)n2)CC1 [Example 61, 6-((4-(3-furoyl)piperazin-1-yl)methyl)-N-(5-chlorothiazol-2-yl)pyridin-2-amine] | 17 | 530 |
| O=C(c1cccc(Cl)c1F)N1CCCN(Cc2cccc(Nc3nccs3)n2)CC1 [Example 63, 6-((4-(3-chloro-2-fluorobenzoyl)-1,4-diazepan-1-yl)methyl)-N-thiazol-2-ylpyridin-2-amine] | 1.3 | 570 |
| O=C(c1cnccn1)N1CCN(Cc2cccc(Nc3ncc(Cl)s3)n2)CC1 [Example 64, 6-((4-(pyrazin-2-ylcarbonyl)piperazin-1-yl)methyl)-N-(5-chlorothiazol-2-yl)pyridin-2-amine] | 110 | 2500 |
| O=C(c1ccsc1)N1CCN(Cc2cccc(Nc3ncc(Cl)s3)n2)CC1 [Example 65, 6-((4-(3-thienylcarbonyl)piperazin-1-yl)methyl)-N-(5-chlorothiazol-2-yl)pyridin-2-amine] | 2.4 | 160 |
| O=C(c1nccs1)N1CCN(Cc2cccc(Nc3ncc(Cl)s3)n2)CC1 [Example 67, 6-((4-(thiazol-2-ylcarbonyl)piperazin-1-yl)methyl)-N-(5-chlorothiazol-2-yl)pyridin-2-amine] | 17 | 320 |
| Cn1ccc(C(=O)N2CCN(Cc3cccc(Nc4ncc(Cl)s4)n3)CC2)n1 [Example 69, 6-((4-((1-methyl-1H-pyrazol-3-yl)carbonyl)piperazin-1-yl)methyl)-N-(5-chlorothiazol-2-yl)pyridin-2-amine] | 32 | 920 |
| N#Cc1ccccc1C(=O)N1CCN(Cc2cccc(Nc3ncc(Cl)s3)n2)CC1 [Example 70, 6-((4-(2-cyanobenzoyl)piperazin-1-yl)methyl)-N-(5-chlorothiazol-2-yl)pyridin-2-amine] | 2.4 | 96 |
| CC(=O)Nc1cccc(C(=O)N2CCN(Cc3cccc(Nc4ncc(Cl)s4)n3)CC2)c1 [Example 72, 6-((4-(3-(acetylamino)benzoyl)piperazin-1-yl)methyl)-N-(5-chlorothiazol-2-yl)pyridin-2-amine] | 27 | 170 |
| CS(=O)(=O)c1cccc(C(=O)N2CCN(Cc3cccc(Nc4ncc(Cl)s4)n3)CC2)c1 [Example 74, 6-((4-(3-(methanesulfonyl)benzoyl)piperazin-1-yl)methyl)-N-(5-chlorothiazol-2-yl)pyridin-2-amine] | 47 | 850 |
| O=C(c1cccc(Cl)c1Cl)N1CCN(Cc2cccc(Nc3ncc(Cl)s3)n2)CC1 [Example 76, 6-((4-(2,3-dichlorobenzoyl)piperazin-1-yl)methyl)-N-(5-chlorothiazol-2-yl)pyridin-2-amine] | 0.44 | 47 |
| O=C(c1cccnc1F)N1CCN(Cc2cccc(Nc3ncc(Br)s3)n2)CC1 [Example 78, 6-((4-((2-fluoropyridin-3-yl)carbonyl)piperazin-1-yl)methyl)-N-(5-bromothiazol-2-yl)pyridin-2-amine] | 2 | 240 |
| O=C(c1ccnc(F)c1)N1CCN(Cc2cccc(Nc3ncc(Br)s3)n2)CC1 [Example 79, 6-((4-(2-fluoroisonicotinoyl)piperazin-1-yl)methyl)-N-(5-bromothiazol-2-yl)pyridin-2-amine] | 26 | 2200 |
| O=C(c1cccc(Cl)c1F)N1CCN(Cc2cc(Br)cc(Nc3nccs3)n2)CC1 [Example 81, 4-bromo-6-((4-(3-chloro-2-fluorobenzoyl)piperazin-1-yl)methyl)-N-thiazol-2-ylpyridin-2-amine] | 0.33 | 300 |
| COC(=O)c1cc(CN2CCN(C(=O)c3cccc(Cl)c3F)CC2)nc(Nc2nccs2)c1 [Example 82, methyl 2-((4-(3-chloro-2-fluorobenzoyl)piperazin-1-yl)methyl)-6-(thiazol-2-ylamino)isonicotinate] | 0.51 | 210 |
| O=C(O)c1cc(CN2CCN(C(=O)c3cccc(Cl)c3F)CC2)nc(Nc2nccs2)c1 [Example 83, 2-((4-(3-chloro-2-fluorobenzoyl)piperazin-1-yl)methyl)-6-(thiazol-2-ylamino)isonicotinic acid] | 0.64 | 800 |
